Results as given in paper PMC5046821 (Biochemistry, 2016).

Target: Irp3 (Yersinia enterocolitica, UniProt O54512)
Experiment: X-ray crystallography, […] Å, cocrystal
Format: binding
Conditions: with NADP+; pH 7.3; active site, substrate analogue, occupancy 70-85%

O=C(O)[C@@H]1CSC(c2csc(-c3ccccc3O)n2)=N1 [HPTT-COOH, 2′-(2-Hydroxyphenyl)-4,5-dihydro[2,4′-bisthiazole]-4-carboxylic Acid]
X-ray crystallography, 1.28 Å, cocrystal: A holo-Irp3 structure was determined with both HPTT-COOH and NADP^+ bound.
